Results: patent EP0172632B1, “Benzopyrano[4,3,2-cd]indazole compounds, processes for their production and pharmaceutical compositions comprising the compounds” (WARNER-LAMBERT COMPANY, priority 1984, dated 1986)
Structures can show the parent of a compound that is named as a salt.

Assays:
L1210 cells = test: L1210 in vitro cell growth inhibition; assay type: cell-based; conditions: Mus musculus, 72 h; L1210 murine leukemia cells, three days incubation, 50% inhibition of growth; read-out: L1210 in vitro ID50
Method: Another test protocol uses L1210 cells, a murine leukemia cell line, grown in RPMI 1640 supplemented with 5% fetal bovine serum and gentamicin ([…]). Drug dilutions are prepared in the appropriate solvent and 20 µl of each dilution are added to 24-well Linbro tissue culture plates, followed by the addition of 2.0 ml of cell suspension containing 3 x 10^4 cells per ml. Solvent and medium controls are included in each test. After incubation at 37°C for three days in 5% CO2, the contents of each well are removed and the cells counted in a ZBI Counter counter. Percent growth are calculated relative to the controls and the levels of drug activity are expressed as ID50 in moles per liter.

HCT-8 cells = test: in vitro proliferating human colon adenocarcinoma (HCA) cell screen; assay type: cell-based; conditions: 60 to 65 hours with compound, 50% inhibition of growth, read-out: HCA-4 in vitro ID50
Method: One test protocol is the in vitro proliferating human colon adenocarcinoma (HCA) cell screen. In this test, HCT-8 cells (HCA cell line received from Yale University) are trypsinized using trypsin-EDTA. A single cell suspension is achieved by passing the cells through a 26 gauge needle with a 20 cc syringe. A cell suspension is prepared using RPMI 1640 + 10% FCS + 50 µg/ml gentamicin sulfate with a cell concentration of approximately 30,000 cells/ml. The cell suspension is dispensed in Linbro 24-well plates; 1 ml/well. The plates are incubated for approximately 48 hours at 37°C in a 5% CO2 atmosphere. At this time test compounds are added in the appropriate concentration. Five µl of the 200 µg/ml stock solution is added to each well in a primary test. Ten ul of the appropriate dilution is added to each well for the titration test. The plates are reincubated an additional 60 to 65 hours at 37°C in a 5% C02 atmosphere. The cells are lysed using a mix of cationic surfactant, glacial acetic acid, and sodium chloride. Two ml of the lysed cell suspension from each well is added to 8 ml of diluent. The number of nuclei is determined using a Coulter counter (ZBI model), and a percent growth for each drug concentration is calculated. From this, an IDso (molar concentration of compound that results in 50% inhibition of growth) is determined.

[1] = test system: lymphocytic leukemia P388; test: in vivo lymphocytic leukemia P388 test; conditions: Mus musculus, P388, ip, 120 h, mice, survival time treated/control, read-out: P388 in vivo T/C×100; for response vs control in vivo at 12.5 mg/kg: Dose 12.5 mg/kg intraperitoneally once daily for five days; for response vs control in vivo at 25 mg/kg: Dose 25 mg/kg intraperitoneally once daily for five days
Method: Another test protocol is the in vivo lymphocytic leukemia P388 test. The animals used are either male or female CD2F, mice. There are six or seven animals per test group. The tumor transplant is by intraperitoneal injection of dilute ascitic fluid containing cells of lymphocytic leukemia P388. The test compounds are administered intraperitoneally once daily for five consecutive days at various doses following tumor inoculation. The animals are weighed and survivors are recorded on a regular basis for 30 days. A compound is designated "toxic" if, at a given dose, all animals died prior to four days after the first injection of drug. A ratio of survival time for treated (T)/control (C) animals is calculated. A criterion for efficacy is a ratio T/C times 100 greater than or equal to 125. See Cancer Chemotherapy Reports, Part 3, 3, 1 (1972) for a comprehensive discussion of the protocol.

Bacillus subtilis 04555 = test: in vitro antibacterial/antifungal (ABF) agar-disk diffusion assay; assay type: cell-based; conditions: read-out: ABF Zone Diameter (Conc. in mg/ml) B. Sub-tilis; for zone of inhibition at 500 µg/mL: Conc. .5 mg/ml
Method: (§1) Still another test protocol is the in vitro antibacterial/antifungal (ABF) test. Compounds are tested for antimicrobial activity in an agar-disk diffusion assay, a standard microbiological technique for testing antibiotics. After incubation of each culture with a test compound, a zone of inhibition is determined. The zone diameter (mm) of active compounds ranges from a minimum of 13.5 mm to as high as 60 mm, with a greater diameter reflecting higher activity. For convenience, values are reported for two gram-negative bacteria (Aerobacter aerogenes 0126 and Escherichia coli 04863), two gram-positive bacteria (Bacillus subtilis 04555 and Streptococcus faecalis 05045 utilizing AM-09 medium), and one mycelial fungus (Penicillium avellaneum M2988).

[2] = test system: Penicillium avellaneum M2988; test: as above; assay type: cell-based; conditions: Hamigera avellanea, read-out: ABF Zone Diameter (Conc. in mg/ml) P. Avell-aneum; for zone of inhibition at 3000 µg/mL: Conc. 3 mg/ml
Method: as §1

[3] = test system: Streptococcus faecalis 05045; test: as above; assay type: cell-based; conditions: Enterococcus faecalis, AM-09 medium, read-out: ABF Zone Diameter (Conc. in mg/ml) S. Fae-calis; for zone of inhibition at 500 µg/mL: Conc. .5 mg/ml
Method: as §1

[4] = test system: Corynebacterium Sp. ATCC 21698; test: in vitro antibacterial (ABMF) microdilution susceptibility test; assay type: cell-based; conditions: ATCC21698, Mueller-Hinton broth microdilution, 37°C, 16-24 hours, read-out: ABMF Minimal Inhibitory Concentration (µ/ml) Coryn. sp.
Excerpt: (§2) Still another test protocol is the in vitro antibacterial (ABMF) test which is a recognized standard microdilution susceptibility procedure in Mueller-Hinton broth against Gram-positive and Gram-negative bacterial test organisms. The procedure is a modification of a state-of-the-art procedure reported in Manual of Clinical Microbiology, Lennette, E. H., ed., by Barry, A. L. and C. Thornsberry at pages 463-474 and by Gavan, T. L. and A. L. Barry at pages 459―462, American Society for Microbiology, Washington, 1980.
(§3) In the test, a given bacterial culture is used to inoculate individual test wells of microdilution trays containing growth medium and test compound, the latter in a microdilution series: 1000, 333.111, 37,12, 4, 1.4, and 0.46 micrograms per milliliter. […] For convenience, values are reported for Escherichia coli, Corynebacterium Sp. ATCC 21698, Salmonella typhimurium, Streptococcus pneumoniae, and Rhodotorula aurantiaca.

Escherichia coli = test: as above; assay type: cell-based; conditions: Mueller-Hinton broth microdilution, 37°C, 16-24 hours, read-out: ABMF Minimal Inhibitory Concentration (µ/ml) E. coli
Excerpt: as §2, §3

Rhodotorula aurantiaca = test: as above; assay type: cell-based; conditions: Buckleyzyma aurantiaca; Mueller-Hinton broth microdilution, 37°C, 16-24 hours; read-out: ABMF Minimal Inhibitory Concentration (µ/ml) R. aurant
Excerpt: as §2, §3

Salmonella typhimurium = test: as above; assay type: cell-based; conditions: Salmonella enterica, Mueller-Hinton broth microdilution, 37°C, 16-24 hours, read-out: ABMF Minimal Inhibitory Concentration (µ/ml) S. typh.
Excerpt: as §2, §3

Streptococcus pneumoniae = test: as above; assay type: cell-based; conditions: Mueller-Hinton broth microdilution, 37°C, 16-24 hours, read-out: ABMF Minimal Inhibitory Concentration (µ/ml) S. pneum.
Excerpt: as §2, §3

SMILES	IC50 (L1210 cells)	IC50 (HCT-8 cells)	zone of inhibition at 500 µg/mL (Bacillus subtilis 04555)	zone of inhibition at 3000 µg/mL [2]	zone of inhibition at 500 µg/mL [3]	response vs control in vivo at 12.5 mg/kg [1]	response vs control in vivo at 25 mg/kg [1]	MIC [4]	MIC (Escherichia coli)	MIC (Rhodotorula aurantiaca)	MIC (Salmonella typhimurium)	MIC (Streptococcus pneumoniae)	further results
CCN(CC)CCn1nc2c3c(c([N+](=O)[O-])ccc31)Oc1ccccc1-2 [Example 1, N,N-Diethyl-5-nitro-2H-[1] benzopyrano[4,3,2-cd]indazole-2-ethanamine]	1900 nM	1000 nM	14 mm	0 mm	15 mm	–	–	–	–	–	–	–	response vs control in vivo at 100 mg/kg ([1]; Dose 100 mg/kg intraperitoneally once daily for five days): 138%; response vs control in vivo at 200 mg/kg ([1]; Dose 200 mg/kg intraperitoneally once daily for five days): 211%
O=[N+]([O-])c1ccc2c3c(nn2CCNCCO)-c2ccccc2Oc13 [Example 2, 2-[[2-(5-Nitro-2H-[1]benzopyrano[4,3,2-cd]-indazol-2-yl)ethyl]amino]ethanol, monohydrochloride]	400 nM	500 nM	–	–	17 mm	–	–	–	–	–	–	–	response vs control in vivo at 50 mg/kg ([1]; Dose 50 mg/kg intraperitoneally once daily for five days): 141%; zone of inhibition at 100 µg/mL (Bacillus subtilis 04555; Conc. .1 mg/ml): 17 mm; zone of inhibition at 100 µg/mL ([2]; Conc. .1 mg/ml): 19 mm
CCN(CC)CCn1nc2c3c(c(N)ccc31)Oc1ccccc1-2 [Example 3, 5-Amino-N,N-diethyl-2H-[1]benzopyrano[4,3,2-cd]indazol-2-ethanamine]	1300 nM	2400 nM	–	–	–	–	–	–	–	–	–	–	–
CCN(CC)CCn1nc2c3c(c(NCCN)ccc31)Oc1ccccc1-2 [Example 4, N-[2-[2-(Diethylamino)ethyl]-2H-[1]benzopyrano[4,3,2-cd]indazol-5-yl]ethanediamine, trihydrobromide, dihydrate]	80 nM	160 nM	14 mm	0 mm	–	174%	216%	–	–	–	–	–	zone of inhibition at 3000 µg/mL ([3]; Conc. 3 mg/ml): 16 mm
O=C(CNCCO)Nc1ccc2c3c(nn2CCNCCO)-c2cc(O)ccc2Oc13 [Example 17, 2-[2-[(2-Hydroxyethyl)amino]ethyl]-9-hydroxy-2H-[1]benzopyrano[4,3,2-cd]indazol-5-yl]-2-[(2-hydroxyethyl)amino]acetamide, hydrochloride]	1700 nM	–	–	–	–	–	–	333 µg/mL	1000 µg/mL	1000 µg/mL	> 1000 µg/mL	> 1000 µg/mL	response vs control in vivo at 60 mg/kg ([1]; Dose 60 mg/kg intraperitoneally once daily for five days): 134%; response vs control in vivo at 120 mg/kg ([1]; Dose 120 mg/kg intraperitoneally once daily for five days): 142%; response vs control in vivo at 240 mg/kg ([1]; Dose 240 mg/kg intraperitoneally once daily for five days): 184%
OCCNCCNc1ccc2c3c(nn2CCNCCO)-c2cc(O)ccc2Oc13 [Example 18, 2-[2[(2-Hydroxyethyl)amino]ethyl]-5-[[2-[(2-hydroxyethyl)amino]ethyl]amino-2H [1]benzopyrano[4,3,2-cd]indazol-9-ol, hydrochloride]	130 nM	–	–	–	–	236%	236%	37 µg/mL	111 µg/mL	> 1000 µg/mL	1000 µg/mL	333 µg/mL	response vs control in vivo at 6.25 mg/kg ([1]; Dose 6.25 mg/kg intraperitoneally once daily for five days): 173%
